Measured values published in PubChem BioAssay (NCI).
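All cell lines were grown in 96-well plates and treated with compound for 48 hours. GI50 is the concentration that inhibits growth by half. TGI marks complete inhibition of growth.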

How the values were obtained:
Experiment in all cases: DTP human tumour cell line panel, 48 h
HT29 colon = system: HT29 colon
OVCAR-5 ovarian = system: OVCAR-5 ovarian
UACC-257 melanoma = system: UACC-257 melanoma
T-47D breast = system: T-47D breast
RXF 393 renal = system: RXF 393 renal
LOX IMVI melanoma = system: LOX IMVI melanoma
MDA-MB-435 = system: MDA-MB-435
SNB-19 CNS = system: SNB-19 CNS
SW-620 colon = system: SW-620 colon
786-0 renal = system: 786-0 renal
OVCAR-3 ovarian = system: OVCAR-3 ovarian
NCI/ADR-RES ovarian = system: NCI/ADR-RES ovarian
SK-MEL-2 melanoma = system: SK-MEL-2 melanoma
PC-3 prostate = system: PC-3 prostate
OVCAR-4 ovarian = system: OVCAR-4 ovarian
OVCAR-8 ovarian = system: OVCAR-8 ovarian
DU-145 prostate = system: DU-145 prostate
SF-539 CNS = system: SF-539 CNS
HOP-62 NSCLC = system: HOP-62 NSCLC
SNB-75 CNS = system: SNB-75 CNS
ACHN renal = system: ACHN renal
HL-60(TB) leukemia = system: HL-60(TB) leukemia
SK-OV-3 ovarian = system: SK-OV-3 ovarian
SK-MEL-28 melanoma = system: SK-MEL-28 melanoma
HCT-116 colon = system: HCT-116 colon
A498 renal = system: A498 renal
SN12C renal = system: SN12C renal
MDA-MB-231 breast = system: MDA-MB-231 breast
HOP-92 NSCLC = system: HOP-92 NSCLC
NCI-H522 lung = system: NCI-H522 lung
HCC-2998 colon = system: HCC-2998 colon
NCI-H23 lung = system: NCI-H23 lung
TK-10 renal = system: TK-10 renal
EKVX NSCLC = system: EKVX NSCLC
NCI-H460 lung = system: NCI-H460 lung
NCI-H226 lung = system: NCI-H226 lung
UACC-62 melanoma = system: UACC-62 melanoma
M14 melanoma = system: M14 melanoma
CCRF-CEM leukemia = system: CCRF-CEM leukemia
COLO 205 colon = system: COLO 205 colon
A549 NSCLC = system: A549 NSCLC
CAKI-1 renal = system: CAKI-1 renal
MDA-MB-468 breast = system: MDA-MB-468 breast
KM12 colon = system: KM12 colon
HCT-15 colon = system: HCT-15 colon
SF-295 CNS = system: SF-295 CNS
UO-31 renal = system: UO-31 renal
RPMI-8226 leukemia = system: RPMI-8226 leukemia
HS 578T breast = system: HS 578T breast
K-562 leukemia = system: K-562 leukemia
MCF7 breast = system: MCF7 breast
SR leukemia = system: SR leukemia
IGROV1 ovarian = system: IGROV1 ovarian
SF-268 CNS = system: SF-268 CNS
MALME-3M melanoma = system: MALME-3M melanoma
U251 CNS = system: U251 CNS
MOLT-4 leukemia = system: MOLT-4 leukemia
BT-549 breast = system: BT-549 breast
SK-MEL-5 melanoma = system: SK-MEL-5 melanoma

For `N#C/C(=C\c1ccc(N(c2ccccc2)c2ccccc2)cc1)C(N)=O`, the GI50 (HT29 colon) was 16.9 µM, the TGI (HT29 colon) was > 100 µM and the GI50 (OVCAR-5 ovarian) was 1.12 µM. It also gave a TGI (OVCAR-5 ovarian) of 3.07 µM, a GI50 (UACC-257 melanoma) of 0.839 µM and a TGI (UACC-257 melanoma) of 3.53 µM. For the same compound, the GI50 (T-47D breast) was 1.06 µM, the TGI (T-47D breast) was 5.27 µM and the GI50 (RXF 393 renal) was 1.33 µM. For the same compound, the TGI (RXF 393 renal) was 20.3 µM, the GI50 (LOX IMVI melanoma) was > 89 µM and the TGI (LOX IMVI melanoma) was > 100 µM. For the same compound, the GI50 (MDA-MB-435) was > 100 µM, the TGI (MDA-MB-435) was > 100 µM and the GI50 (SNB-19 CNS) was 37.3 µM. For the same compound, the TGI (SNB-19 CNS) was > 100 µM, the GI50 (SW-620 colon) was 8.69 µM and the TGI (SW-620 colon) was > 100 µM. The GI50 (786-0 renal) was 18 µM, the TGI (786-0 renal) was > 92.1 µM and the GI50 (OVCAR-3 ovarian) was 4.6 µM. For the same compound, the TGI (OVCAR-3 ovarian) was > 95.9 µM, the GI50 (NCI/ADR-RES ovarian) was 21.6 µM and the TGI (NCI/ADR-RES ovarian) was > 100 µM. The GI50 (SK-MEL-2 melanoma) was 29 µM, the TGI (SK-MEL-2 melanoma) was > 100 µM and the GI50 (PC-3 prostate) was > 69.8 µM. The TGI (PC-3 prostate) was > 100 µM, the GI50 (OVCAR-4 ovarian) was 2.28 µM and the TGI (OVCAR-4 ovarian) was 16.1 µM. For the same compound, the GI50 (OVCAR-8 ovarian) was 35.1 µM, the TGI (OVCAR-8 ovarian) was > 100 µM and the GI50 (DU-145 prostate) was > 100 µM. The TGI (DU-145 prostate) was > 100 µM, the GI50 (SF-539 CNS) was 68 µM and the TGI (SF-539 CNS) was > 100 µM. The GI50 (HOP-62 NSCLC) was 3.9 µM, the TGI (HOP-62 NSCLC) was 31.5 µM and the GI50 (SNB-75 CNS) was 19.8 µM. The TGI (SNB-75 CNS) was > 93.9 µM, the GI50 (ACHN renal) was 64.4 µM and the TGI (ACHN renal) was > 100 µM. The GI50 (HL-60(TB) leukemia) was > 100 µM, the TGI (HL-60(TB) leukemia) was > 100 µM and the GI50 (SK-OV-3 ovarian) was 25.3 µM. For the same compound, the TGI (SK-OV-3 ovarian) was > 100 µM, the GI50 (SK-MEL-28 melanoma) was > 100 µM and the TGI (SK-MEL-28 melanoma) was > 100 µM. The GI50 (HCT-116 colon) was 0.758 µM, the TGI (HCT-116 colon) was > 100 µM and the GI50 (A498 renal) was 1.11 µM. For the same compound, the TGI (A498 renal) was 2.61 µM, the GI50 (SN12C renal) was > 77.1 µM and the TGI (SN12C renal) was > 100 µM. The GI50 (MDA-MB-231 breast) was > 72.5 µM, the TGI (MDA-MB-231 breast) was > 100 µM and the GI50 (HOP-92 NSCLC) was 29.7 µM. The TGI (HOP-92 NSCLC) was > 92.4 µM, the GI50 (NCI-H522 lung) was > 78.9 µM and the TGI (NCI-H522 lung) was > 100 µM. For the same compound, the GI50 (HCC-2998 colon) was > 64.1 µM, the TGI (HCC-2998 colon) was > 100 µM and the GI50 (NCI-H23 lung) was 15.3 µM. The TGI (NCI-H23 lung) was > 100 µM, the GI50 (TK-10 renal) was 0.797 µM and the TGI (TK-10 renal) was 3.92 µM. The GI50 (EKVX NSCLC) was > 100 µM, the TGI (EKVX NSCLC) was > 100 µM and the GI50 (NCI-H460 lung) was 1.74 µM. The TGI (NCI-H460 lung) was > 67.2 µM, the GI50 (NCI-H226 lung) was 0.24 µM and the TGI (NCI-H226 lung) was 0.989 µM. For the same compound, the GI50 (UACC-62 melanoma) was 0.308 µM, the TGI (UACC-62 melanoma) was 1.37 µM and the GI50 (M14 melanoma) was > 100 µM. For the same compound, the TGI (M14 melanoma) was > 100 µM, the GI50 (CCRF-CEM leukemia) was > 100 µM and the TGI (CCRF-CEM leukemia) was > 100 µM. For the same compound, the GI50 (COLO 205 colon) was 15.3 µM, the TGI (COLO 205 colon) was > 100 µM and the GI50 (A549 NSCLC) was 22.7 µM. For the same compound, the TGI (A549 NSCLC) was > 100 µM, the GI50 (CAKI-1 renal) was 0.308 µM and the TGI (CAKI-1 renal) was 2.48 µM. The GI50 (MDA-MB-468 breast) was 0.145 µM, the TGI (MDA-MB-468 breast) was 0.351 µM and the GI50 (KM12 colon) was > 100 µM. For the same compound, the TGI (KM12 colon) was > 100 µM, the GI50 (HCT-15 colon) was > 100 µM and the TGI (HCT-15 colon) was > 100 µM. The GI50 (SF-295 CNS) was 7.24 µM, the TGI (SF-295 CNS) was > 100 µM and the GI50 (UO-31 renal) was 25.7 µM. The TGI (UO-31 renal) was > 100 µM, the GI50 (RPMI-8226 leukemia) was 12.4 µM and the TGI (RPMI-8226 leukemia) was > 100 µM. For the same compound, the GI50 (HS 578T breast) was 38.4 µM, the TGI (HS 578T breast) was > 100 µM and the GI50 (K-562 leukemia) was 43.9 µM. The TGI (K-562 leukemia) was > 100 µM, the GI50 (MCF7 breast) was 0.661 µM and the TGI (MCF7 breast) was > 100 µM. For the same compound, the GI50 (SR leukemia) was > 100 µM, the TGI (SR leukemia) was > 100 µM and the GI50 (IGROV1 ovarian) was 0.946 µM. The TGI (IGROV1 ovarian) was 4.64 µM, the GI50 (SF-268 CNS) was 67.3 µM and the TGI (SF-268 CNS) was > 100 µM. The GI50 (MALME-3M melanoma) was 42.9 µM, the TGI (MALME-3M melanoma) was > 100 µM and the GI50 (U251 CNS) was 2.99 µM. The TGI (U251 CNS) was > 100 µM, the GI50 (MOLT-4 leukemia) was > 100 µM and the TGI (MOLT-4 leukemia) was > 100 µM. The GI50 (BT-549 breast) was > 100 µM, the TGI (BT-549 breast) was > 100 µM and the GI50 (SK-MEL-5 melanoma) was 11 µM. For the same compound, the TGI (SK-MEL-5 melanoma) was > 100 µM.
